Test: Thermo Gravimetric Analyzer (TGA) % volatiles (water)
Type: physicochemical
Conditions: 10° C./min to 110° C., isothermal hold 60 min
Experimental: 10 mg was collected for each sample. A heating ramp of 10° C./min from room temperature to 110° C. with an isothermal hold at 110° C. for 60 min was used in the analysis. Table 4 below depicts the % volatiles (water) which were found versus the theoretical values.

Row | SMILES | % Volatiles Found [%]
1 | O=S([O-])([O-])=S.[Na+].[Na+] [Sodium Thiosulfate] | 33
2 | O=P([O-])([O-])O.[K+].[K+] [Potassium Phosphate Dibasic] | 2.7

Source: patent US20100284912A1, “HOMOGENIZATION OF A RADIOPHARMACEUTICAL USING SONIFICATION AND/OR ROTOR-STATOR TECHNOLOGY TO PRODUCE A HOMOGENOUS SUSPENSION, EMULSION, MIXTURE OR SOLID SUSPENSION OF IMMISCIBLE INGREDIENTS” (BRACCO DIAGNOSTICS INC., priority 2007, published 2010)
